The source of these data is patent publication US20040251215A1, “Method for killing organicsms in the course of conveying ballast water in ships and apparatus thereof” (priority 2003, published 2004).

Data set [1] has as its system single cell alga. In words: Test of elimination of single cell alga in seawater (ballast water) by hydroxyl radical solution. Conditions: OH concentration 0.63 mg/L. The format is cell-based. The text has this:
(§1) Free radical generator of the present invention was made of anode electrode 22, cathode electrode 21, dielectric substance layer 24 and septum 23. Strong electric field of 250-600 Td was formed between the anode electrode and cathode electrode. […] The undissolved free radicals were removed by residual free radical treater 13. High frequency electric source made from transformer 5, invertor 6 and controller 7 was used to supply electric source to free radical generator 3. Free radical concentration measuring apparatus 4 was used to measure the concentration of free radical produced while the hydroxyl radical solution concentration analyzer 14 was used to measure the concentration of hydroxyl radical solution. Untreated ballast water was suctioned by pump 19 into conveying pipe and filtered by filter 16 (FIG. 2). A part of them was taken out and was processed by free radical generating unit 15 into hydroxyl radical solution which was then mixed in liquid-liquid mixer 20 with ballast water conveyed in pipe and flowed through flow meter 17 and valve 18. The effectiveness of the elimination of single cell alga, protozoans and bacteria was illustrated in Table 1.

For data set [2], the system named is bacteria, single cell alga, protozoan, spore and vibrio. The data set can be described thus: Time and concentration needed to kill microorganisms in ballast water by hydroxyl radical. The format is cell-based.
Excerpt: as §1
The time necessary for elimination of single cell alga, protozoan, bacteria and the like was extremely short. […]

A short description of data set [3]: Decomposition of residual hydroxyl radicals. As to conditions: treated ballast water. The data set is classed as physicochemical. As to the method: The residual hydroxyl radicals were decomposed after 20 min into H2O, O2 and the like and there was no any residual chemical reagent left. Therefore the method for treating ballast water by using hydroxyl radicals solution is a green effective method.

In data set [4] the test system is Bacteria. In words: Test of elimination of bacteria in seawater (ballast water) by hydroxyl radical solution. The data set is classed as cell-based. As to conditions: OH concentration 0.63 mg/L.
Excerpt: as §1

Data set [5] has as its system Protozoan. The data set can be described thus: Test of elimination of protozoan in seawater (ballast water) by hydroxyl radical solution. The data set is classed as cell-based. As to conditions: OH concentration 0.63 mg/L.
Excerpt: as §1

As to hydroxyl radical [OH], the Lethality in data set [1], in data set [4] and in data set [5] was 100% each time. Further, the Microorganism concentration entry in data set [1] (untreated 6.0 × 10^4), in data set [4] (untreated 1.9 × 10^5) and in data set [5] (untreated 4.4 × 10^4) was “not detectable” in each case. In addition, in data set [2] (from curve of time against lethality, FIG. 4), the “time needed for elimination of microorganism” value is reported as “about 4 s”. For the same substance, the “concentration at which killing is feasible” value in data set [2] (single cell alga, protozoan, spore, bacteria, vibrio in ballast water) lay within 0.6 to 0.7 mg/L. Besides, the “time after which residual hydroxyl radicals were decomposed into H2O, O2” value in data set [3] stood at 20 min.
